Source: US5674909A, “Derivatives of 2-amino-1,2,3,4-tetrahydronaphthalene active on the cardiovascular system” (Zambon Group, priority 1994, dated 1997)

Key:
[1] = system: D1 -like (Rabbit Splenic Artery); test: D1-like activity in the Rabbit Splenic Artery (RSA) test; settings: agonist activity at the peak of the effect; contracted with U46619 0.1 μM
Method: Arterial rings were prepared according to Semeraro et al., Naunyn. Schmied. Arch. Pharmacol., 1990, 342, 539.
The arterial preparations were contracted with U46619 (9,11-di-deoxy-11α,9α-epoxy-methanoprostaglandin F2α) at the submaximal concentration 0.1 μM.
(§1) The tested compounds were cumulatively administered.
(§2) Ref. A was used as reference substance.
(§3) Agonist activity evaluated at the peak of the effect and expressed as potency ratio (EC50 of Ref. A/EC50 of tested compound) is reported in table 2.

[2] = biological target: T1, D2 -like (Rabbit Ear Artery) (Oryctolagus cuniculus, UniProt G1T1Q0); test: D2-like activity in the Rabbit Ear Artery (REA) test; design: species or system New Zealand rabbit; settings: agonist activity at the peak of the effect; electrically stimulated
T1 construct: the central ear artery was dissected into 3 mm long rings; from tissue; host or cells: rabbit central ear artery rings (male New Zealand rabbits), electrically stimulated
T1 sequence (G1T1Q0 1-443): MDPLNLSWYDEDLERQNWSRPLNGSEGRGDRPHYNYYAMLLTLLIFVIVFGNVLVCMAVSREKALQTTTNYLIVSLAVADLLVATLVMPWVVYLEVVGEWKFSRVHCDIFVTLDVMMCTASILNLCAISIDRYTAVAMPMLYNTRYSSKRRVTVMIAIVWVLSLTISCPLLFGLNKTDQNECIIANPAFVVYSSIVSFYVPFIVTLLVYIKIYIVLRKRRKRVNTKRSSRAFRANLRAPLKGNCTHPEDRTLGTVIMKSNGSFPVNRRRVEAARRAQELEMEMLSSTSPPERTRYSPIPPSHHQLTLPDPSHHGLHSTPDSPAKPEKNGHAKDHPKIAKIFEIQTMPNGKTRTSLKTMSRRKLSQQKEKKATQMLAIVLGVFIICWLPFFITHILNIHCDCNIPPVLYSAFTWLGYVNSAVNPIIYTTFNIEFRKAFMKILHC
Method: Arterial rings were prepared according to the method described by Steinsland et al., Science, 1978, 443, 199, modified as follows. Male New Zealand rabbits weighing 2.5-3 Kg were sacrificed by intravenous injection of an excess of pentobarbital sodium and exsanguinated. The two ears were taken away and the central ear artery was dissected into 3 mm long rings.
These preparations were set up in a 25 ml organ bath containing Krebs solution (mM/l): NaCl 118, KCl 4.7, CaCl2 2.5, MgSO4 1.2, NaHCO3 25, KH2 PO4 1.2, glucose 11.1, equilibrated with 95% 02 -5% CO2 and maintained at 35°±1° C.
Krebs solution was medicated with EDTA (10 μM) to prevent cathecolamine oxydation, desipramine (0.1 μM) and corticosterone (30 μM), to block neuronal and extraneuronal cathecolamine uptake. The preparations were electrically stimulated (10 Hz, 1 msec, 40-80 mA, 500 msec duration) at 5 minutes intervals.
as §1, §2, §3

| SMILES | D1 -like (RSA) potency ratio (EC50 of Ref. A/EC50 of tested compound) [1] | D2 -like (REA) potency ratio (EC50 of Ref. A/EC50 of tested compound) [2] |
| --- | --- | --- |
| Br.Br.CCCN(CCCCCCNCCc1ccc2sc(=O)[nH]c2c1)[C@H]1CCc2c(ccc(O)c2O)C1 [Compound 19, (S)-N-propyl-N-[6-[2-(2-oxo-3H-1,3-benzothiazol-5-yl)ethylamino]hexyl]-5,6-dihydroxy-1,2,3,4-tetrahydro-2-naphthylamine dihydrobromide] | 11 | 4 |
| Br.Br.CCCN(CCCCCCNCCc1cc(O)cc(Cl)c1)[C@H]1CCc2c(ccc(O)c2O)C1 [Compound 21, (S)-N-propyl-N-[6-[2-(3-chloro-5-hydroxyphenyl)ethylamino]hexyl]-5,6-dihydroxy-1,2,3,4-tetrahydro-2-naphthylamine dihydrobromide] | 3 | 1.7 |
| Br.Br.CCCN(CCCCCCNCCc1ccc(O)c(C)c1)[C@H]1CCc2c(ccc(O)c2O)C1 [Compound 14, (S)-N-propyl-N-[6-[2-(3-methyl-4-hydroxyphenyl)ethylamino]hexyl]-5,6-dihydroxy-1,2,3,4-tetrahydro-2-naphthylamine dihydrobromide] | 33 | 3 |
| CCCN(CCCCCCNCCc1ccc2nc(N)sc2c1)[C@H]1CCc2c(ccc(O)c2O)C1.Cl.Cl.Cl [Compound 40, (S)-N-propyl-N-[6-[2-(2-amino-1,3-benzothiazol-6-yl)ethylamino]hexyl]-5,6-dihydroxy-1,2,3,4-tetrahydro-2-naphthylamine trihydrochloride] | 14 | 3 |
| Br.Br.CCCN(CCCCCCNCCc1ccc(O)c([N+](=O)[O-])c1)[C@H]1CCc2c(ccc(O)c2O)C1 [Compound 12, (S)-N-propyl-N-[6-[2-(3-nitro-4-hydroxyphenyl)ethylamino]hexyl]-5,6-dihydroxy-1,2,3,4-tetrahydro-2-naphthylamine dihydrobromide] | 5 | – |
| Br.Br.CCCN(CCCCCCNCCc1cc(O)c(C)c(O)c1)[C@H]1CCc2c(ccc(O)c2O)C1 [Compound 17, (S)-N-propyl-N-[6-[2-(3,5-dihydroxy-4-methylphenyl)ethylamino]hexyl]-5,6-dihydroxy-1,2,3,4-tetrahydro-2-naphthylamine dihydrobromide] | 12 | 25 |

Other lines, results leading:

| D1 -like (RSA) potency ratio (EC50 of Ref. A/EC50 of tested compound) [1] | D2 -like (REA) potency ratio (EC50 of Ref. A/EC50 of tested compound) [2] | SMILES |
| --- | --- | --- |
| 33 | 10 | CCCN(CCCCCCNCCc1ccc(O)c(OC)c1)[C@H]1CCc2c(ccc(O)c2O)C1.Cl.Cl [Compound 26, (S)-N-propyl-N-[6-[2-(3-methoxy-4-hydroxyphenyl)ethylamino]hexyl]-5,6-dihydroxy-1,2,3,4-tetrahydro-2-naphthylamine dihydrochloride] |
| 2.5 | 3 | CCCN(CCCCCCNCCc1ccc(S(=O)(=O)O)cc1)[C@H]1CCc2c(ccc(O)c2O)C1.Cl.Cl [Compound 39, (S)-N-propyl-N-[6-[2-(4-sulphophenyl)ethylamino]hexyl]-5,6-dihydroxy-1,2,3,4-tetrahydro-2-naphthylamine dihydrochloride] |
| 5 | 5 | CCCN(CCCCCCNCCc1ccc(C(N)=O)cc1)[C@H]1CCc2c(ccc(O)c2O)C1.Cl.Cl [Compound 37, (S)-N-propyl-N-[6-[2-(4-carbamoylphenyl)ethylamino]hexyl]-5,6-dihydroxy-1,2,3,4-tetrahydro-2-naphthylamine dihydrochloride] |
| 5 | 5 | CCCN(CCCCCCNCCc1ccc(NC(C)=O)cc1)[C@H]1CCc2c(ccc(O)c2O)C1.Cl.Cl [Compound 33, (S)-N-propyl-N-[6-[2-(4-acetylaminophenyl)ethylamino]hexyl]-5,6-dihydroxy-1,2,3,4-tetrahydro-2-naphthylamine dihydrochloride] |
